The text below walks through data of PubChem BioAssay (NCI).

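These data come from cells grown in 96-well plates and exposed to compound for 48 hours at five concentrations. TGI marks complete inhibition of growth.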

One test has as its system EKVX NSCLC. Description: NCI anticancer screen, dose series, 48 h.
Molecule `N#Cc1nc(CCCN2C(=O)c3ccccc3C2=O)oc1N` registered a TGI above 100 µM.
On the same count and under the same terms, the figure for `O=c1c(-c2ccccc2)c(SCCN2CCCCCC2)n(-c2ccccc2)c(=S)n1-c1ccccc1` is 35.7 µM.

For a further test, the system named is NCI-H226 lung. The test can be described thus: NCI anticancer screen, dose series, 48 h.
Consider `Cc1ccc2c(c1C)CC1(Cc3c(C)ccc(C)c3C1=O)C2=O` (configuration not stated), for which the TGI was above 100 µM.
Same read-out and setting: for `O=CN1CCN(C(=O)c2ccco2)C1=S` the value was 54.8 µM.
The same measure, in the same setting: the figure for `Cn1c2c(c3ccccc31)CCN1C(=O)C34CCCC3CC21S4` (configuration not stated) is above 100 µM; for `C=C1CC(COc2ccc3c(C)c(C)c(=O)oc3c2C)(c2ccccc2)OC1=O` (configuration not stated) it is 6.73 µM.
The same measure, in the same setting: the figure for `CC(=O)OCC(=O)O[C@@H]1[C@H]2[C@@H](OC(=O)c3ccccc3)[C@@H](C)C[C@]2(O)[C@H](OC(C)=O)[C@@]2(C)C[C@]1(OC(C)=O)C[C@H]1C(=O)C(C)(C)[C@@H](OC(C)=O)[C@@H]12` is above 25 µM.
For the molecule `O=C(Sc1c(-c2ccccc2)c(=O)n(-c2ccccc2)c(=S)n1-c1ccccc1)c1ccco1`, the TGI is above 100 µM.
The same measure, in the same setting: for `Cn1nc2c(c1N)Cc1c(nn(C)c1N)-c1ccccc1-2` the value was above 100 µM; for `CCC(=O)Nc1ccc(NS(=O)(=O)c2ccc(Cl)cc2)cc1`, above 100 µM.
On the same count and under the same terms, the figure for `Cc1nnc2n1-c1ccccc1N(Cc1ccccc1)CC2` is above 100 µM.
Still for that read-out and setting: for `CC(C)(C)c1cc(/C=C2/NC(=O)NC2=O)cc(C(C)(C)C)c1O` the value was 33 µM.
As to `COc1cccc(N2C(=O)CS(=O)(=O)C2c2cccc(Oc3ccccc3)c2)c1` (configuration not stated), the TGI stood at 76.7 µM.
Molecule `O=C(/C=C\Nc1ccccc1O)C(F)(F)F` had a TGI above 100 µM.
Same read-out and setting: for `CC1(C)OC[C@@H](C[C@H](O)COCc2ccccc2)O1` the value was above 100 µM.
Still for that read-out and setting: the figure for `NC(N)=NS(=O)(=O)c1ccc(NC(=O)c2cccc3c(NNc4ccc(S(N)(=O)=O)cc4)c4ccccc4nc23)cc1` is above 100 µM.
Same read-out and setting: for `CC(=O)N(C)c1ccc(Nc2ccnc3ccc4nn(C)nc4c23)cc1` the value was 34.3 µM; for `CN(C)CCNc1c([N+](=O)[O-])sc2ccc(Cl)cc12`, 66 µM.
In turn, `COc1ccc2c(c1)-c1c(c3cc(OC)ccc3n1CCN(C)C)CC2` showed a TGI of 30 µM.
The same measure, in the same setting: for `N#Cc1nc(CCCN2C(=O)c3ccccc3C2=O)oc1N` the value was above 100 µM; for `O=c1c(-c2ccccc2)c(SCCN2CCCCCC2)n(-c2ccccc2)c(=S)n1-c1ccccc1`, above 100 µM.

The subject of another test is M14 melanoma. Description: NCI anticancer screen, dose series, 48 h.
The molecule `Cc1ccc2c(c1C)CC1(Cc3c(C)ccc(C)c3C1=O)C2=O` (configuration not stated) yielded a TGI above 100 µM.
On the same count and under the same terms, the figure for `O=CN1CCN(C(=O)c2ccco2)C1=S` is 24.1 µM; for `Cn1c2c(c3ccccc31)CCN1C(=O)C34CCCC3CC21S4` (configuration not stated) it is above 100 µM.
The same measure, in the same setting: for `C=C1CC(COc2ccc3c(C)c(C)c(=O)oc3c2C)(c2ccccc2)OC1=O` (configuration not stated) the value was 4.23 µM.
On the same count and under the same terms, the figure for `CC(=O)OCC(=O)O[C@@H]1[C@H]2[C@@H](OC(=O)c3ccccc3)[C@@H](C)C[C@]2(O)[C@H](OC(C)=O)[C@@]2(C)C[C@]1(OC(C)=O)C[C@H]1C(=O)C(C)(C)[C@@H](OC(C)=O)[C@@H]12` is above 25 µM; for `O=C(Sc1c(-c2ccccc2)c(=O)n(-c2ccccc2)c(=S)n1-c1ccccc1)c1ccco1` it is above 100 µM; for `Cn1nc2c(c1N)Cc1c(nn(C)c1N)-c1ccccc1-2` it is above 100 µM.
In the case of `CCC(=O)Nc1ccc(NS(=O)(=O)c2ccc(Cl)cc2)cc1`, the TGI was above 100 µM.
The same measure, in the same setting: for `Cc1nnc2n1-c1ccccc1N(Cc1ccccc1)CC2` the value was above 100 µM; for `COc1cccc(N2C(=O)CS(=O)(=O)C2c2cccc(Oc3ccccc3)c2)c1` (configuration not stated), 89.7 µM.
Molecule `O=C(/C=C\Nc1ccccc1O)C(F)(F)F` had a TGI above 100 µM.
On the same count and under the same terms, for `CC1(C)OC[C@@H](C[C@H](O)COCc2ccccc2)O1` the value was above 100 µM; for `NC(N)=NS(=O)(=O)c1ccc(NC(=O)c2cccc3c(NNc4ccc(S(N)(=O)=O)cc4)c4ccccc4nc23)cc1`, above 100 µM; for `CC(=O)N(C)c1ccc(Nc2ccnc3ccc4nn(C)nc4c23)cc1`, above 100 µM.
Still for that read-out and setting: the figure for `CN(C)CCNc1c([N+](=O)[O-])sc2ccc(Cl)cc12` is above 100 µM; for `COc1ccc2c(c1)-c1c(c3cc(OC)ccc3n1CCN(C)C)CC2` it is 28.5 µM; for `N#Cc1nc(CCCN2C(=O)c3ccccc3C2=O)oc1N` it is above 100 µM.

For a further test, the system named is BT-549 breast. Description: NCI anticancer screen, dose series, 48 h.
`Cc1ccc2c(c1C)CC1(Cc3c(C)ccc(C)c3C1=O)C2=O` (configuration not stated): the TGI is above 100 µM.
The same measure, in the same setting: the figure for `O=CN1CCN(C(=O)c2ccco2)C1=S` is 16.8 µM.
The same measure, in the same setting: for `Cn1c2c(c3ccccc31)CCN1C(=O)C34CCCC3CC21S4` (configuration not stated) the value was above 100 µM; for `O=C1/C(=C/c2ccncc2)C(n2cccc2)c2c(Br)sc(Br)c21` (configuration not stated), 16.8 µM.
Same read-out and setting: for `C=C1CC(COc2ccc3c(C)c(C)c(=O)oc3c2C)(c2ccccc2)OC1=O` (configuration not stated) the value was 3.17 µM.
For `CC(=O)OCC(=O)O[C@@H]1[C@H]2[C@@H](OC(=O)c3ccccc3)[C@@H](C)C[C@]2(O)[C@H](OC(C)=O)[C@@]2(C)C[C@]1(OC(C)=O)C[C@H]1C(=O)C(C)(C)[C@@H](OC(C)=O)[C@@H]12`, the TGI was above 25 µM.
The same measure, in the same setting: the figure for `O=C(Sc1c(-c2ccccc2)c(=O)n(-c2ccccc2)c(=S)n1-c1ccccc1)c1ccco1` is above 100 µM.
On the same count and under the same terms, for `Cn1nc2c(c1N)Cc1c(nn(C)c1N)-c1ccccc1-2` the value was above 100 µM; for `CCC(=O)Nc1ccc(NS(=O)(=O)c2ccc(Cl)cc2)cc1`, above 100 µM.
On the same count and under the same terms, for `Cc1nnc2n1-c1ccccc1N(Cc1ccccc1)CC2` the value was 76.2 µM; for `CC(C)(C)c1cc(/C=C2/NC(=O)NC2=O)cc(C(C)(C)C)c1O`, 27.3 µM.
Take `COc1cccc(N2C(=O)CS(=O)(=O)C2c2cccc(Oc3ccccc3)c2)c1` (configuration not stated): the TGI turned out to be 61.4 µM.
Same read-out and setting: the figure for `O=C(/C=C\Nc1ccccc1O)C(F)(F)F` is above 100 µM; for `CC1(C)OC[C@@H](C[C@H](O)COCc2ccccc2)O1` it is above 100 µM; for `NC(N)=NS(=O)(=O)c1ccc(NC(=O)c2cccc3c(NNc4ccc(S(N)(=O)=O)cc4)c4ccccc4nc23)cc1` it is above 100 µM.
The same measure, in the same setting: for `CC(=O)N(C)c1ccc(Nc2ccnc3ccc4nn(C)nc4c23)cc1` the value was 69.4 µM; for `CN(C)CCNc1c([N+](=O)[O-])sc2ccc(Cl)cc12`, above 100 µM.
As to `COc1ccc2c(c1)-c1c(c3cc(OC)ccc3n1CCN(C)C)CC2`, the TGI is 26.9 µM.
The same measure, in the same setting: the figure for `N#Cc1nc(CCCN2C(=O)c3ccccc3C2=O)oc1N` is above 100 µM.
`O=c1c(-c2ccccc2)c(SCCN2CCCCCC2)n(-c2ccccc2)c(=S)n1-c1ccccc1` yielded a TGI above 100 µM.

A further test has as its system SF-539 CNS. Description: NCI anticancer screen, dose series, 48 h.
For `Cc1ccc2c(c1C)CC1(Cc3c(C)ccc(C)c3C1=O)C2=O` (configuration not stated), the TGI is above 100 µM.
The molecule `O=CN1CCN(C(=O)c2ccco2)C1=S` yielded a TGI of 22.8 µM.
Molecule `Cn1c2c(c3ccccc31)CCN1C(=O)C34CCCC3CC21S4` (configuration not stated) had a TGI above 100 µM.
Molecule `O=C1/C(=C/c2ccncc2)C(n2cccc2)c2c(Br)sc(Br)c21` (configuration not stated) registered a TGI of 17.1 µM.
The same measure, in the same setting: the figure for `C=C1CC(COc2ccc3c(C)c(C)c(=O)oc3c2C)(c2ccccc2)OC1=O` (configuration not stated) is 4.75 µM; for `CC(=O)OCC(=O)O[C@@H]1[C@H]2[C@@H](OC(=O)c3ccccc3)[C@@H](C)C[C@]2(O)[C@H](OC(C)=O)[C@@]2(C)C[C@]1(OC(C)=O)C[C@H]1C(=O)C(C)(C)[C@@H](OC(C)=O)[C@@H]12` it is above 25 µM; for `O=C(Sc1c(-c2ccccc2)c(=O)n(-c2ccccc2)c(=S)n1-c1ccccc1)c1ccco1` it is above 100 µM.
For `Cn1nc2c(c1N)Cc1c(nn(C)c1N)-c1ccccc1-2`, the TGI is above 100 µM.
Take `CCC(=O)Nc1ccc(NS(=O)(=O)c2ccc(Cl)cc2)cc1`: the TGI is above 100 µM.
On the same count and under the same terms, the figure for `Cc1nnc2n1-c1ccccc1N(Cc1ccccc1)CC2` is above 100 µM; for `CC(C)(C)c1cc(/C=C2/NC(=O)NC2=O)cc(C(C)(C)C)c1O` it is 31.6 µM; for `COc1cccc(N2C(=O)CS(=O)(=O)C2c2cccc(Oc3ccccc3)c2)c1` (configuration not stated) it is 38.4 µM.
Still for that read-out and setting: for `O=C(/C=C\Nc1ccccc1O)C(F)(F)F` the value was above 100 µM; for `CC1(C)OC[C@@H](C[C@H](O)COCc2ccccc2)O1`, above 100 µM; for `NC(N)=NS(=O)(=O)c1ccc(NC(=O)c2cccc3c(NNc4ccc(S(N)(=O)=O)cc4)c4ccccc4nc23)cc1`, above 100 µM.
For `CC(=O)N(C)c1ccc(Nc2ccnc3ccc4nn(C)nc4c23)cc1`, the TGI was determined as 46.4 µM.
Same read-out and setting: for `CN(C)CCNc1c([N+](=O)[O-])sc2ccc(Cl)cc12` the value was 46.9 µM; for `COc1ccc2c(c1)-c1c(c3cc(OC)ccc3n1CCN(C)C)CC2`, 29.8 µM.
Same read-out and setting: the figure for `N#Cc1nc(CCCN2C(=O)c3ccccc3C2=O)oc1N` is above 100 µM.
Still for that read-out and setting: for `O=c1c(-c2ccccc2)c(SCCN2CCCCCC2)n(-c2ccccc2)c(=S)n1-c1ccccc1` the value was above 100 µM.

In another test the test system is 786-0 renal. Description: NCI anticancer screen, dose series, 48 h.
`Cc1ccc2c(c1C)CC1(Cc3c(C)ccc(C)c3C1=O)C2=O` (configuration not stated) registered a TGI above 100 µM.
`O=CN1CCN(C(=O)c2ccco2)C1=S` gave a TGI of 12.6 µM.
The same measure, in the same setting: for `Cn1c2c(c3ccccc31)CCN1C(=O)C34CCCC3CC21S4` (configuration not stated) the value was above 100 µM; for `O=C1/C(=C/c2ccncc2)C(n2cccc2)c2c(Br)sc(Br)c21` (configuration not stated), 11.5 µM.
The same measure, in the same setting: the figure for `C=C1CC(COc2ccc3c(C)c(C)c(=O)oc3c2C)(c2ccccc2)OC1=O` (configuration not stated) is 2.78 µM; for `CC(=O)OCC(=O)O[C@@H]1[C@H]2[C@@H](OC(=O)c3ccccc3)[C@@H](C)C[C@]2(O)[C@H](OC(C)=O)[C@@]2(C)C[C@]1(OC(C)=O)C[C@H]1C(=O)C(C)(C)[C@@H](OC(C)=O)[C@@H]12` it is above 25 µM; for `O=C(Sc1c(-c2ccccc2)c(=O)n(-c2ccccc2)c(=S)n1-c1ccccc1)c1ccco1` it is above 100 µM.
Same read-out and setting: for `Cn1nc2c(c1N)Cc1c(nn(C)c1N)-c1ccccc1-2` the value was above 100 µM; for `CCC(=O)Nc1ccc(NS(=O)(=O)c2ccc(Cl)cc2)cc1`, above 100 µM; for `Cc1nnc2n1-c1ccccc1N(Cc1ccccc1)CC2`, above 100 µM.
In turn, `CC(C)(C)c1cc(/C=C2/NC(=O)NC2=O)cc(C(C)(C)C)c1O` had a TGI of 33.3 µM.
In turn, `COc1cccc(N2C(=O)CS(=O)(=O)C2c2cccc(Oc3ccccc3)c2)c1` (configuration not stated) had a TGI of 44.4 µM.
The same measure, in the same setting: the figure for `O=C(/C=C\Nc1ccccc1O)C(F)(F)F` is above 100 µM.
For `CC1(C)OC[C@@H](C[C@H](O)COCc2ccccc2)O1`, the TGI was above 100 µM.
On the same count and under the same terms, for `NC(N)=NS(=O)(=O)c1ccc(NC(=O)c2cccc3c(NNc4ccc(S(N)(=O)=O)cc4)c4ccccc4nc23)cc1` the value was above 100 µM; for `CC(=O)N(C)c1ccc(Nc2ccnc3ccc4nn(C)nc4c23)cc1`, above 100 µM.
The same measure, in the same setting: for `CN(C)CCNc1c([N+](=O)[O-])sc2ccc(Cl)cc12` the value was 49.1 µM; for `COc1ccc2c(c1)-c1c(c3cc(OC)ccc3n1CCN(C)C)CC2`, 22.7 µM; for `N#Cc1nc(CCCN2C(=O)c3ccccc3C2=O)oc1N`, above 100 µM.
